This is an account of results in patent US10815237B2, “Antimicrobials and methods of making and using same” (BIOVERSYS AG, priority 2016, dated 2020).

Usually MIC stands for the lowest concentration that inhibits growth of the organism. The term IC50 denotes the concentration at which inhibition is half-maximal.

The test system of one test is P. aeruginosa (n=20). Briefly: CLSI broth microdilution MIC, P. aeruginosa. Format: cell-based. The settings on record: P. aeruginosa isolates; stated jointly for analogues C and D. Here is the method: (§1) Four compounds, including Compound No. 8 of the present application (RX-04D) were tested against (i) multiresistant Enterobacteriaceae and Acinetobacter with carbapenemases; (ii) Enterobacteriaceae with MCR-1; and (iii) P. aeruginosa with altered efflux (see Tables 4 and 5). In this case, MCR-1 is relevant because its activity reduces the negative charge of lipopolysaccharides, potentially affecting binding of poly-basic molecules such as the compounds tested herein, as well as polymyxins.
(§2) MICs of the four tested compounds and comparators (amikacin, cefepime, colistin, meropenem and tigecyline) were determined by CLSI broth microdilution using pre-prepared plates (Trek Diagnostic Systems) (CLSI Approved Standard M7-A10). Carbapenemase and mcr-1 genes were detected by PCR or sequencing. Efflux levels in P. aeruginosa isolates were inferred by interpretive reading of antibiogram data.
For orientation: Broth dilution looks for growth in wells or tubes with falling amounts of substance.

A further test deals with E. coli DH10B recipient. Briefly: CLSI broth microdilution MIC, E. coli DH10B recipient. It is filed as cell-based. Here is the method:
as §1, §2

Test [1] deals with Enterobacteriaceae (n=68). The test can be described thus: CLSI broth microdilution MIC, Enterobacteriaceae panel. The settings on record: 68 Enterobacteriaceae. It is filed as cell-based. Here is the method:
as §1, §2

The test system of test [2] is E. coli DH10B mcr-1 transformant. The test can be described thus: CLSI broth microdilution MIC, E. coli DH10B mcr-1 transformant. It is filed as cell-based. Here is the method:
as §1, §2

The subject of test [3] is Chinese hamster ovary (CHO) cells. The test can be described thus: cytotoxicity against CHO cell line (Cell Titer Blue). It is filed as cell-based. The note with it: Cricetulus griseus, 24 h, CHO-K1 cells, 24 hours incubation, percent cell kill. The method, then:
The compounds of the present disclosure were tested for cytotoxicity against Chinese hamster ovary (CHO) cells.
The assay was performed by seeding CHO—K1 in F12K medium containing 13.33% Fetal Bovine Serum […]. 37.5 μl of cell suspension at a concentration of 9,500 cells/well was plated into each column of a 384-well black clear bottom assay plate with the exception of a negative (no cell) control column, and allowed to adhere for 2 hours. The culture media was then removed from the 175 cm^2 flask(s) and the cell monolayer washed with 10 mL of Phosphate Buffered Saline PBS. 3 mL of Cellstripper™ was then added and the flask was incubated for approximately 5 min at 37° C. The cells were dissociated by agitation and 7 mL of F 12K medium containing 10% FBS was added to the flask. A homogeneous cell suspension was obtained by trituration of the flask. The cells were counted with a hemocytometer by diluting an aliquot of the cell suspension in PBS with 0.4% trypan blue. Typically, a ratio of 100 μl cell suspension to 1800 μl PBS to 100 μl trypan blue was used.
The volume of cell suspension containing the number of cells needed to seed the plate(s) (15.2 mL containing 3.8×10^6 cells) was calculated and transferred to a 50 mL centrifuge tube with the appropriate volume of media. 37.5 μl of cells were added to each well of the 384 well plate except for the negative (no cell) control column. A cytotoxicity 100-fold dilution plate was then prepared by manually pipetting 18 μl of 100% DMSO into two columns of an empty low volume dilution plate. 2 μl of a 50 mM solution of compounds 1-23 from the translation plate were manually pipetted into the corresponding columns of the 100-fold dilution plate. 10 μl of 100% DMSO was manually pipetted into all remaining columns of the 100-fold plate.
A 4-fold cytotoxicity plate was prepared beforehand by manually pipetting 48 μl of F12K media (without DMSO and without FBS) into each well of a matrix 384 well plate. The test samples in the 100-fold dilution plate were mixed and diluted. Ten 2-fold dilutions were performed for each compound in duplicate. The 384 cannula array then transferred 2 μl to the 48 μl of media in the cytotoxicity 4-fold dilution plate. The array was then mixed and 12.5 μl of samples from the cytotoxicity 4-fold dilution plate were transferred to the 37.5 μl of cells and media. The final top concentration of samples at this point in the procedure was 50 μM with 10 subsequent 1:2 dilutions down to […]. The final DMSO concentration were 1% and the final concentration of FBS was 10%.
Cycloheximide was run as a control. Specifically, Cycloheximide was diluted to 0.1 mM from 100 mM stock […] and was added to the cytotoxicity 100-fold plate. Upon addition to the cell plate, a range of 1 μM to 1 nM of cycloheximide was run.
A column separate from the one (referred to above) that served as the negative control was used for cell control wells to which only media was added.
The plates were then incubated for 24 hours at 37° C. and 5% CO2. […] The two columns used earlier to prepare the 100-fold dilution plate by pipetting 18 μl of 100% DMSO contained the samples tested at 200 μM. After the 24 hour incubation period, the 4 μl of Cell Titer blue was added to each well using a Multichannel Matrix pipettor. The plates were returned to the incubator and incubated for an additional 5 hours. Fluorescence (530 nm excitation wavelength/590 nm emission wavelength) was measured on a Wallac Victor microplate reader.
Cell viability was assessed fluorometrically after a 5 hour incubation with resazurin (Cell Titer Blue™), which is reduced by living cells to the fluorescent resorufin.
The average fluorescence for the negative control was determined to obtain the average blank fluorescence. The average blank fluorescence was subtracted from the fluorescence values obtained for all the test agents. The resulting values are the corrected fluorescence. […]
(Alamar Blue is a resazurin reagent that responds to reducing activity.)

Test [4] relates to A. baumannii isolates (n=10). The test can be described thus: CLSI broth microdilution MIC, A. baumannii. The settings on record: 10 A. baumannii. Format: cell-based. The method, then: as §1, §2
The test system of test [5] is Staphylococcus aureus (S. aureus) 11540 strain. Briefly: standard microdilution MIC, S. aureus. It is filed as cell-based. The note with it: Staphylococcus aureus. Here is the method:
(§3) The in vitro activity of the compounds of the present disclosure can be determined. Antimicrobial testing is typically performed to determine the minimum inhibitory concentration (MIC). Minimum inhibitory concentrations (MICs) are determined by the microdilution method in a final volume of 100 μl according to protocols outlined by The Clinical and Laboratory Standards Institute (CLSI). Performance standards for reference strains are assessed within the same experimental design to maintain quality control. See, for example, Clinical Laboratory Standards Institute: Methods for dilution antimicrobial susceptibility tests for bacteria that grow aerobically M7-A8. Approved Standard-Eighth Edition. Wayne, Pa.: CLSI; December 2008; and Clinical Laboratory Standards Institute: Performance Standards for Antimicrobial Susceptibility Testing M100-S20; Approved Standard-Twentieth Edition. Wayne, Pa.: CLSI; June 2010.
(§4) The compounds of the present disclosure were tested for antimicrobial activity. The Compounds 1-23 were run against Eschericia coli (E. coli) strain ATCC25922 and against Staphylococcus aureus (S. aureus) 11540 strain using a standard microdilution assay to determine minimum inhibitory concentrations (MICs). […] It will be recognized by one skilled in the art that the compounds can be assessed against other bacterial organisms and that the presentation of data for activity against Eschericia coli and Staphylococcus aureus are illustrative and in no way is intended to limit the scope of the present disclosure. The compounds of the present disclosure can be assayed against a range of other microorganisms depending upon the performance activity desired to be gathered. Furthermore, the “+” and “−” representation and the selection of a cutoff value of 16 micrograms/mL is also illustrative and in no way is intended to limit the scope of the present disclosure.

Test [6] deals with Eschericia coli (E. coli) strain ATCC25922. The test can be described thus: standard microdilution MIC, E. coli. The settings on record: Escherichia coli. Format: cell-based, Escherichia coli. Here is the method: as §3, §4
Setting [7] is: Escherichia coli, DH10BRECIPIENT, read-out: MIC.

Converted amounts (≈) assume the structure as drawn. Read-outs that look alike come from different tables or passages of the source. A value given as a limit tells only on which side of the number the result lay.

Turning to `CSc1cc(-n2cc3cc(-c4cc(CCC[C@@H](N)C5CC5)cc(Cl)c4F)[nH]c3nc2=O)ccc1[C@@H]1CCC[C@@H](CCNC(C)=N)N1` [RX-04C], in the test on P. aeruginosa (n=20), the “share of MICs ≥16 mg/L” value is on record as 48%. For the same compound, the MIC (in the test on E. coli DH10B recipient (setting [7]); in test [2] (Escherichia coli)) was 0.5 µg/mL (≈ 0.753 µM) throughout. Besides, the “peak of unimodal MIC distribution” value in test [1] worked out at 2 µg/mL.
`C[C@H](N)CCCc1cc(Cl)c(F)c(-c2cc3cn(-c4ccc([C@@H]5CCC[C@@H](CCNC(=N)CN)N5)cc4)c(=O)nc3[nH]2)c1` [Compound 8] displayed an IC50 in test [3] of 95.2 µM. The “relative activity among analogues” value in test [4] is reported as “least active analogue”. Besides, the “share of MICs ≥16 mg/L” value in the test on P. aeruginosa (n=20) is 48%. Besides, the MIC is 1 µg/mL (≈ 1.65 µM) with E. coli DH10B recipient (setting [7]), no more than 16 µg/mL in test [5], no more than 16 µg/mL in test [6] and 1 µg/mL (≈ 1.65 µM) in test [2] (Escherichia coli). Moreover, the “peak of unimodal MIC distribution” value in test [1] was determined as 2 µg/mL.
Take `CC(=N)NCC[C@@H]1CCC[C@@H](c2ccc(-n3cc4cc(-c5cc(CCC[C@@H](N)CO)cc(Cl)c5F)[nH]c4nc3=O)cc2F)N1` [RX-04B]: the MIC (with E. coli DH10B recipient (setting [7]); in test [2] (Escherichia coli)) was 0.5 µg/mL (≈ 0.799 µM) in each case. Moreover, the “peak of unimodal MIC distribution” value in test [1] turned out to be 1 µg/mL.
In the case of `C[C@H](N)CCCc1cc(Cl)c(F)c(-c2cc3cn(-c4ccc([C@H](C)NCCCNC(=N)CN)cc4)c(=O)nc3[nH]2)c1` [Compound 9], the IC50 in test [3] was greater than 100 µM. The MIC in test [5] and in test [6] was no more than 16 µg/mL in each case.
`C=C[C@H](N)CCCc1cc(Cl)c(F)c(-c2cc3cn(-c4cc(F)c([C@@H]5CCC[C@@H](CCNC(=N)CN)N5CCCF)c(SC)c4)c(=O)nc3[nH]2)c1` [Compound 65] returned an IC50 in test [3] of 5.2 µM. Also, the MIC in test [5] and in test [6] was no more than 16 µg/mL each time.
The compound `CN=C(CN)NCC[C@@H]1CCC[C@@H](c2ccc(-n3cc4cc(-c5cc(CCC[C@H](C)N)cc(Cl)c5F)[nH]c4nc3=O)cc2)N1` [Compound 18] returned an IC50 in test [3] greater than 100 µM. Besides, the MIC in test [5] and in test [6] was no more than 16 µg/mL each time.
`C[C@H](N)CCCc1cc(-c2cc3cn(-c4ccc([C@@H]5CCC[C@@H](CCNC(=N)CN)N5)cc4)c(=O)nc3[nH]2)ccc1C(F)(F)F` [Compound 21]: the half-inhibitory concentration (IC50) in test [3] was greater than 100 µM. The MIC in test [5] and in test [6] was no more than 16 µg/mL in each case.
As to `C=C[C@H](CCNC(=N)CN1CCSCC1)NCc1ccc(-n2cc3cc(-c4cc(CCC[C@H](C)N)cc(Cl)c4F)[nH]c3nc2=O)cc1` [Compound 3], the IC50 in test [3] is greater than 100 µM. The MIC in test [5] and in test [6] was no more than 16 µg/mL each time.
For the compound `C[C@H](N)CCCc1cc(Cl)c(F)c(-c2cc3cn(-c4ccc([C@@H]5CCC[C@@H](CCNC(=N)[C@H](C)N)N5)cc4)c(=O)nc3[nH]2)c1` [Compound 60], the IC50 in test [3] was greater than 100 µM. In addition, the MIC in test [5] and in test [6] was no more than 16 µg/mL throughout.
`N=C(CN)NCC[C@@H]1CCC[C@@H](c2ccc(-n3cc4cc(-c5cc(CCC[C@@H](N)C6CC6)cc(C(F)(F)F)c5)[nH]c4nc3=O)cc2)N1CCCF` [Compound 42] displayed a concentration for half-maximal inhibition (IC50) in test [3] greater than 100 µM. Moreover, the minimum inhibitory concentration (MIC) in test [5] and in test [6] was no more than 16 µg/mL throughout.
As to `C[C@H](N)CCCc1cc(Cl)c(F)c(-c2cc3cn(-c4ccc(CN[C@@H](CO)CCNC(=N)CN5CCSCC5)cc4)c(=O)nc3[nH]2)c1` [Compound 4], the half-maximal inhibitory concentration (IC50) in test [3] was greater than 100 µM. Besides, the MIC in test [5] and in test [6] was no more than 16 µg/mL each time.
Consider `C=C[C@H](N)CCCc1cc(Cl)c(F)c(-c2cc3cn(-c4ccc([C@@H]5CCC[C@@H](CCNC(=N)CN)N5CCCF)c(SC)c4)c(=O)nc3[nH]2)c1` [Compound 61], for which the IC50 in test [3] turned out to be 13.6 µM. Further, the MIC in test [5] and in test [6] was no more than 16 µg/mL each time.
Take `C[C@H](N)CCCc1cc(-c2cc3cn(-c4ccc([C@@H]5CCC[C@@H](CCNC(=N)CN)N5CCCF)c(F)c4)c(=O)nc3[nH]2)cc(C(F)(F)F)c1` [Compound 44]: in test [3], the IC50 was greater than 100 µM. The MIC in test [5] and in test [6] was no more than 16 µg/mL in each case.
For colistin [reference compound], the “MIC” value against E. coli DH10B recipient was 0.25 µg/mL; in test [2] (E. coli DH10B MCR-1 Transformant), 4 µg/mL.
In test [3], `N=C(CN)NCC[C@@H]1CCC[C@@H](c2ccc(-n3cc4cc(-c5cc(CCC[C@@H](N)CO)cc(Cl)c5F)[nH]c4nc3=O)cc2)N1` [Compound 16] came in with an IC50 of 50.9 µM. The MIC in test [5] and in test [6] was no more than 16 µg/mL in each case.
In turn, `CSc1cc(-n2cc3cc(-c4cc(CCC[C@@H](N)C5CC5)cc(C(F)(F)F)c4)[nH]c3nc2=O)cc(F)c1[C@@H]1CCC[C@@H](CCNC(=N)CN)N1CCCF` [Compound 54] displayed an IC50 in test [3] greater than 100 µM. Besides, the MIC was no more than 16 µg/mL in test [5] and greater than 16 µg/mL in test [6].
